Data from patent publication US11999759B2, “Boronic acid derivatives and therapeutic uses thereof” (Qpex Biopharma, Inc., priority 2016, dated 2024).

Columns and labels:
[1] = tested on: PAM1154/KPC-2 (lacked MexAB-OprM); assay: Biapenem potentiation (MPC64) in PAM1154/KPC-2; format: cell-based, Pseudomonas aeruginosa; set-up: PAM1154/KPC-2 Biapenem MPC64: unit not given here; conditions: for PAM1154/KPC-2 Biapenem MPC64: BLI potency to decrease biapenem MIC 64-fold, from 32 to 0.5 μg/ml, efflux deficient strain
Procedure: (§1) Efflux of BLIs from Pseudomonas aeruginosa by the MexAB-OprM efflux pump was also evaluated. The plasmid expressing the gene encoding KPC-2 was introduced into two strains of P. aeruginosa, PAM1032 and PAM1154 that overexpressed or lacked MexAB-OprM, respectively. Due to expression of KPC-2 both strains became resistant to biapenem. […] Potency of BLIs to potentiate biapenem in these strains was determined. […] The ratio of MPC64 values for each BLI in PAM1032/KPC-2 (efflux proficient) and PAM1154/KPC-2 (efflux deficient) was determined to generate the Efflux Index (EI) as shown in Table 8.

[2] = tested on: PAM1032/KPC-2 (overexpressed MexAB-OprM); assay: Biapenem potentiation (MPC64) in PAM1032/KPC-2; format: cell-based, Pseudomonas aeruginosa; set-up: PAM1032/KPC-2 Biapenem MPC64: unit not given here; conditions: for PAM1032/KPC-2 Biapenem MPC64: BLI potency to decrease biapenem MIC 64-fold, from 32 to 0.5 μg/ml, efflux proficient strain
Procedure: as §1

[3] = tested on: KP1086 (OXA-48); assay: Biapenem potentiation (MPC@1), strain KP1086; format: cell-based; conditions: strain KP1086 (OXA-48), biapenem alone
Description: (§2) Biapenem was present in the test medium at 1 Dg/mL. […] Table 4 summarizes the BLI potency of biapenem potentiation (MPC@1) for two strains overexpressing class A (KPC) and class D (OXA-48) carbapenemases. Biapenem MIC for each strain is also shown.

[4] = tested on: KP1004 (KPC-2); assay: Biapenem potentiation (MPC@1), strain KP1004; format: cell-based; conditions: strain KP1004 (KPC-2), biapenem alone
Description: as §2

[5] = tested on: KP1054 (VIM-1); assay: Biapenem potentiation (MPC@1), strain KP1054; format: cell-based; conditions: strain KP1054 (VIM-1), biapenem alone
[6] = tested on: KP1081 (NDM-1); assay: Biapenem potentiation (MPC@1), strain KP1081; format: cell-based; conditions: strain KP1081 (NDM-1), biapenem alone
[7] = tested on: KP1010 (SHV-12); assay: Aztreonam potentiation (MPC@4), strain KP1010; conditions: read-out: Aztreonam MIC
[8] = tested on: ec302 (TEM-10); assay: Aztreonam potentiation (MPC@4), strain ec302; conditions: read-out: Aztreonam MIC
[9] = tested on: EC1010 (CMY-6); assay: Aztreonam potentiation (MPC@4), strain EC1010; conditions: read-out: Aztreonam MIC
[10] = tested on: ECL1002; assay: Aztreonam potentiation (MPC@4), strain ECL1002; conditions: read-out: Aztreonam MIC
[11] = tested on: ec308 (SHV-5); assay: Aztreonam potentiation (MPC@4), strain ec308; conditions: read-out: Aztreonam MIC
[12] = tested on: KP1009 (CTX-M-15); assay: Aztreonam potentiation (MPC@4), strain KP1009; conditions: read-out: Aztreonam MIC
[13] = tested on: KP1005 (CTX-M-14); assay: Aztreonam potentiation (MPC@4), strain KP1005; conditions: read-out: Aztreonam MIC
[14] = tested on: KP1004 (KPC-2); assay: Aztreonam potentiation (MPC@4), strain KP1004; conditions: read-out: Aztreonam MIC
[15] = molecular target: CTX-M-14 (Escherichia coli, UniProt Q9L5C7); assay: Inhibition of nitrocefin cleavage by purified CTX-M-14; format: biochemical; conditions: nitrocefin reporter substrate; 10 min preincubation at room temperature; read-out: Ki (CTX-M-14, NCF)
Procedure: (§3) Ki values of inhibition of purified class A, C and D enzymes were determined spectrophotometrically using nitrocefin as reporter substrate. Purified enzymes were mixed with various concentrations of inhibitors in reaction buffer and incubated for 10 min at room temperature. Nitrocefin was added and substrate cleavage profiles were recorded at 490 nm every 10 sec for 10 min.

[16] = molecular target: OXA-23 (Acinetobacter baumannii, UniProt Q9L4P2); assay: Inhibition of nitrocefin cleavage by purified OXA-23; format: biochemical; conditions: nitrocefin reporter substrate; 10 min preincubation at room temperature; read-out: Ki (OXA-23, NCF)
Procedure, shortened: (§4)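 Ki values were determined with nitrocefin as the reporter substrate. Purified enzymes were incubated with several inhibitor concentrations for 10 min at room temperature before substrate addition, and cleavage was monitored at 490 nm for 10 min.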

[17] = molecular target: OXA-48 (Klebsiella pneumoniae, UniProt Q6XEC0); assay: Inhibition of nitrocefin cleavage by purified OXA-48; format: biochemical; conditions: nitrocefin reporter substrate; 10 min preincubation at room temperature; read-out: Ki (OXA-48, NCF)
Procedure, shortened: as §4

[18] = molecular target: SHV-12 (Klebsiella pneumoniae, UniProt P0AD64, E235K/G234S/L31Q); assay: Inhibition of nitrocefin cleavage by purified SHV-12; format: biochemical; conditions: nitrocefin reporter substrate; 10 min preincubation at room temperature; read-out: Ki (SHV-12, NCF)
Procedure: as §3

[19] = molecular target: VIM-1 (Pseudomonas aeruginosa, UniProt A0A0F7KYQ8); assay: Inhibition of nitrocefin cleavage by purified VIM-1; format: biochemical; conditions: nitrocefin reporter substrate; 10 min preincubation at room temperature; read-out: Ki (VIM-1, NCF)
[20] = molecular target: IMP-1 (Serratia marcescens, UniProt P52699); assay: Inhibition of imipenem cleavage by purified IMP-1; format: biochemical; conditions: imipenem reporter substrate; 37° C.; read-out: Ki (IMP-1, IMI)
Procedure, shortened: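 Purified enzymes preincubated with varying inhibitor concentrations for 10 min at room temperature, then imipenem added as reporter substrate. Hydrolysis followed spectrophotometrically at 294 nm every 30 s for 30 min at 37° C; Ki values derived.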

[21] = molecular target: Pa-AmpC (Pseudomonas aeruginosa, UniProt P24735); assay: biochemical; conditions: nitrocefin reporter substrate; 10 min preincubation at room temperature; read-out: Ki (Pa-AmpC, NCF)
Procedure: as §3

[22] = molecular target: P99 (Enterobacter cloacae, UniProt P05364); assay: biochemical; conditions: nitrocefin reporter substrate; 10 min preincubation at room temperature; read-out: Ki (P99, NCF)
Procedure: as §3

[23] = molecular target: KPC-2 (Klebsiella pneumoniae, UniProt Q9F663); assay: Inhibition of nitrocefin cleavage by purified KPC-2; format: biochemical; conditions: nitrocefin reporter substrate; 10 min preincubation at room temperature; read-out: Ki (KPC-2, NCF)
Procedure, shortened: as §4

[24] = tested on: ec308 (SHV-5); assay: Tigemonam potentiation (MPC@4), strain ec308; format: cell-based; conditions: strain ec308 (SHV-5), tigemonam alone
[25] = tested on: ECL1002; assay: Tigemonam potentiation (MPC@4), strain ECL1002; format: cell-based; conditions: strain ECL1002, tigemonam alone
[26] = tested on: KP1010 (SHV-12); assay: Tigemonam potentiation (MPC@4), strain KP1010; conditions: strain KP1010 (SHV-12), tigemonam alone
[27] = tested on: KP1005 (CTX-M-14); assay: Tigemonam potentiation (MPC@4), strain KP1005; conditions: strain KP1005 (CTX-M-14), tigemonam alone
[28] = tested on: KP1009 (CTX-M-15); assay: Tigemonam potentiation (MPC@4), strain KP1009; conditions: strain KP1009 (CTX-M-15), tigemonam alone
[29] = tested on: EC1010 (CMY-6); assay: Tigemonam potentiation (MPC@4), strain EC1010; format: cell-based; conditions: strain EC1010 (CMY-6), tigemonam alone
[30] = tested on: ec302 (TEM-10); assay: Tigemonam potentiation (MPC@4), strain ec302; format: cell-based; conditions: strain ec302 (TEM-10), tigemonam alone
[31] = tested on: AB1054 (OXA-23); assay: Meropenem potentiation (MPC@8), strain AB1054; format: cell-based; conditions: Acinetobacter baumannii, read-out: Meropenem MIC
[32] = tested on: AB1053 (OXA-72); assay: Meropenem potentiation (MPC@8), strain AB1053; format: cell-based; conditions: Acinetobacter baumannii; strain AB1053 (OXA-72), meropenem alone

Chain of OXA-48 (Q6XEC0 23-265, looked up): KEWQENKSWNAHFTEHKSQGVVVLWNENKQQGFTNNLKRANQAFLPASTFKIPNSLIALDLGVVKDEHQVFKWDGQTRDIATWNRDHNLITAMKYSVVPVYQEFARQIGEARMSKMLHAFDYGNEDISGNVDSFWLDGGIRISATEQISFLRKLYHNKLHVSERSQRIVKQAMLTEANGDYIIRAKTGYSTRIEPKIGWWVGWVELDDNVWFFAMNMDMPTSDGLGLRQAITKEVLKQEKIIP
Chain of KPC-2 (Q9F663 25-293 limits assumed): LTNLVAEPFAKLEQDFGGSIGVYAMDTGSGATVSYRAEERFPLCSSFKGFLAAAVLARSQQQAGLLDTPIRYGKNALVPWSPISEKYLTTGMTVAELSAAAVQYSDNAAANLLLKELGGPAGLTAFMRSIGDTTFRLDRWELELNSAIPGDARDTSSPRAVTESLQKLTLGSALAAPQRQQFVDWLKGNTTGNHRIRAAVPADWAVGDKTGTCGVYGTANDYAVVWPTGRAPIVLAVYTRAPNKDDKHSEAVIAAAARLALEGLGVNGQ
Chain of CTX-M-14 (Q9L5C7 29-291, species assumed): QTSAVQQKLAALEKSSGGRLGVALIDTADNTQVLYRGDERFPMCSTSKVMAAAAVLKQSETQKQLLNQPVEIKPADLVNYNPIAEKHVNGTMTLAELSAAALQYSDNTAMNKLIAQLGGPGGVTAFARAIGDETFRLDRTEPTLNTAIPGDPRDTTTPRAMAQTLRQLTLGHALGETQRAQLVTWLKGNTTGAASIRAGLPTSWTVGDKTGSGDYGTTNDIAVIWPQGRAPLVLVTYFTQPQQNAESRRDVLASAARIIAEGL
Chain of OXA-23 (Q9L4P2 18-273): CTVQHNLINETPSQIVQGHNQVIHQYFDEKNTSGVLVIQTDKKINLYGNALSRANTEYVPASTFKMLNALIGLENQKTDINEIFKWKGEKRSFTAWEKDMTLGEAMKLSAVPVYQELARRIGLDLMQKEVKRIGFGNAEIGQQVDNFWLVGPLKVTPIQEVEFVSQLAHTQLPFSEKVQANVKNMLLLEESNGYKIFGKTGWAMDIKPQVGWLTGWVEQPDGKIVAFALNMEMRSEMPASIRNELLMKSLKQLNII
Chain of SHV-12 (P0AD64 22-286 L31Q/G234S/E235K): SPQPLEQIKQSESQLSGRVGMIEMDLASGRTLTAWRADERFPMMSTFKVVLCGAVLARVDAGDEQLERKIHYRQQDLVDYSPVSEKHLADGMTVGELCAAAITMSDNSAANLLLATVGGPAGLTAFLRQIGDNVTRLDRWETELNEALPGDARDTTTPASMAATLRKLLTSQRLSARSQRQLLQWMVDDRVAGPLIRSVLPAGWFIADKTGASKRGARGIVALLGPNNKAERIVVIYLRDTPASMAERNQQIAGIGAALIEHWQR
Chain of Pa-AmpC (P24735 27-397): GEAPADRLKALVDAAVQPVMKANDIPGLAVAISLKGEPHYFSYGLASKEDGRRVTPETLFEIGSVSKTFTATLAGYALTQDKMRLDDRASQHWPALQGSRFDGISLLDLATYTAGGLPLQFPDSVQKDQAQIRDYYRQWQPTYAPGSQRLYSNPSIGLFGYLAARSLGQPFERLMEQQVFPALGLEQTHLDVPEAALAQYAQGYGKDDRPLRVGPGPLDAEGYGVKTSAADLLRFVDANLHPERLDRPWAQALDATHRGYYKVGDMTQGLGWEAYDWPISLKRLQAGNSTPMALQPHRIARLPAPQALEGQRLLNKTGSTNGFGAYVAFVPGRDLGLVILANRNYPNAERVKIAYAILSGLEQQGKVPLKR
Chain of P99 (P05364 21-381): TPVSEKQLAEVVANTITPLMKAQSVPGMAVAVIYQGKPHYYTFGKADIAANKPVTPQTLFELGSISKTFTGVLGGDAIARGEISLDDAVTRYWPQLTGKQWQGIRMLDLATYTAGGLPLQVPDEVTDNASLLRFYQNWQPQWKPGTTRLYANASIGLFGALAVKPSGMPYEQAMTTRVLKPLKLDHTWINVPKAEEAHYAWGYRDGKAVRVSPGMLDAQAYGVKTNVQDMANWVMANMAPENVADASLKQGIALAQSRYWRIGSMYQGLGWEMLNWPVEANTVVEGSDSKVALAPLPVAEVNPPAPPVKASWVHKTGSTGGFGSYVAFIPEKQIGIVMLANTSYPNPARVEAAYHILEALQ
Chain of IMP-1 (P52699 19-246, looked up, species assumed): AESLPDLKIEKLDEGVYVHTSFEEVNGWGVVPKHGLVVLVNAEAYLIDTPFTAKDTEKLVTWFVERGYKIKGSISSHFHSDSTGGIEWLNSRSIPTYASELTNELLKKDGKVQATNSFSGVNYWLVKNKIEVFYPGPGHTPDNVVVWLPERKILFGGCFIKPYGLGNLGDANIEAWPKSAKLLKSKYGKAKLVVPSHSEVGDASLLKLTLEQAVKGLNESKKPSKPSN

## C[C@@H](O)[C@H]1C(=O)N2C(C(=O)[O-])=C(SC3Cn4cnc[n+]4C3)[C@H](C)[C@H]12 (stereo partly drawn) [Biapenem]
[1]; Pseudomonas aeruginosa, PAM1154/KPC-2, biapenem alone
  MIC: 32 µg/mL
[2]; Pseudomonas aeruginosa, PAM1032/KPC-2, biapenem alone
  MIC: 32 µg/mL
[3]
  MIC: 16 µg/mL
[4]
  MIC: 32 µg/mL
[5]
  MIC: 16 µg/mL
[6]
  MIC: 16 µg/mL

## C[C@H]1[C@H](NC(=O)/C(=N\OC(C)(C)C(=O)O)c2csc(N)n2)C(=O)N1S(=O)(=O)O [Aztreonam]
[7]
  MIC: 64 µg/mL
[8]
  MIC: 128 µg/mL
[9]
  MIC: > 128 µg/mL
[10]
  MIC: 64 µg/mL
[11]
  MIC: > 128 µg/mL
[12]
  MIC: > 128 µg/mL
[13]
  MIC: > 128 µg/mL
[14]
  MIC: > 128 µg/mL

## O=C(O)c1c(F)ccc2c1OB(O)[C@@H]1C[C@H]21 [Compound 13, (1aR,7bS)-5-fluoro-2-hydroxy-1a,7b-dihydro-1H-cyclopropa[c][1,2]benzoxaborinine-4-carboxylic acid]
[15]
  Ki: < 100 nM
[16]
  Ki: < 100 nM
[1]
  PAM1154/KPC-2 Biapenem MPC64: 2.5
[17]
  Ki: < 100 nM
[2]
  PAM1032/KPC-2 Biapenem MPC64: 2.5
[18]
  Ki: < 100 nM
[19]
  Ki: < 100 nM
[20]
  Ki: 100 to 1000 nM
[21]
  Ki: < 100 nM
[22]
  Ki: < 100 nM
[23]
  Ki: < 100 nM

## CC1(C)[C@H](NC(=O)/C(=N\OCC(=O)O)c2csc(N)n2)C(=O)N1OS(=O)(=O)O [Tigemonam]
[24]
  Tigemonam MIC: >64 µg/mL
[25]
  Tigemonam MIC: 32 µg/mL
[26]
  Tigemonam MIC: >64 µg/mL
[27]
  Tigemonam MIC: >64 µg/mL
[28]
  Tigemonam MIC: >64 µg/mL
[29]
  Tigemonam MIC: 16 µg/mL
[30]
  Tigemonam MIC: >64 µg/mL

## O=C(O)c1c(F)ccc2c1OB(O)[C@H]1C[C@@H]21 [Compound 12, (1aS,7bR)-5-fluoro-2-hydroxy-1a,7b-dihydro-1H-cyclopropa[c][1,2]benzoxaborinine-4-carboxylic acid]
[15]
  Ki: < 100 nM
[16]
  Ki: < 100 nM
[1]
  PAM1154/KPC-2 Biapenem MPC64: 1.25
[17]
  Ki: < 100 nM
[2]
  PAM1032/KPC-2 Biapenem MPC64: 2.5
[18]
  Ki: < 100 nM
[19]
  Ki: > 1000 nM
[20]
  Ki: > 1000 nM
[21]
  Ki: 100 to 1000 nM
[22]
  Ki: < 100 nM
[23]
  Ki: < 100 nM

## C[C@@H](O)[C@H]1C(=O)N2C(C(=O)O)=C(S[C@@H]3CN[C@H](C(=O)N(C)C)C3)[C@H](C)[C@H]12 [Meropenem]
[31]
  MIC: 32 µg/mL
[32]
  MIC: > 64 µg/mL
